Drawing on patent publication US20130184294A1, “Pyrimidones for Treatment of Potassium Channel Related Diseases” (Pfizer Inc., priority 2010, published 2013), this text covers EC50 for 15 compounds.

Molecules are shown by their SMILES.

What is called EC50 is the concentration at which the effect is half-maximal.

The target in the experiment is T1, Kv7.2/7.3 channels (Homo sapiens, UniProt O43525+O43526).
T1 construct: The entire construct for Kv7.2 and Kv7.3 was subcloned into the pIRESneo3 and pIREShygro3 expression vectors; expressed in transfected cells
The experiment in a line: Kv7.2/3 channel opening activity, IonWorks planar patch-clamp of K-current at 0 mV. The settings on record: CHO-K1 cells expressing human Kv7.2/7.3; IonWorks Quattro, step from -80 mV to 0 mV, 7-point concentration curves. The class given is cell-based. From the text:
Biological Assay for Kv7.2/3 Channel Opening Activity
Human Kv7.2 and Kv7.3 clones were obtained from GeneDynamics (Eugene, Oreg.). Both human Kv7.2/pIRESneo3 and human Kv7.3/pIREShygro3 expression vectors were constructed using a combination of fragments amplified from a human hippocampus library (extending from a NheI site near the 5′ end through the stop codon) and synthetic oligonucleotides (extending from the start codon to the BamHI site). The entire construct for Kv7.2 and Kv7.3 was subcloned into the pIRESneo3 and pIREShygro3 expression vectors (Clonetech, Mountain View, Calif.), respectively, using NheI/BamHI sites introduced on either side of the start and stop codons. The construct was sequenced in its entirety to make sure that no mutations were introduced during the amplification and cloning process. Adapted from Wickendon, A D et al., Mol Pharmacol 58(3):591-600, 2000.
Chinese hamster ovary (CHO-K1) cells were transfected with human-Kv7.2 in a pIRESneo3 plasmid DNA vector (Clonetech, Mountain View, Calif.) and the h-Kv7.3 subunit in pIREShygro3 plasmid DNA vector using Lipofectamine-2000™ reagent (InVitrogen, San Diego, Calif.), according to the manufacturers instructions. Cells stably expressing the human Kv7.2 and Kv7.3 constructs were identified by their resistance to 400 ug/ml, geneticin (Gibco #10131-027) and 400 ug/ml, hygromycin-B (Invitrogen #10687-010). Clones were screened for functional expression using the whole-cell, voltage-clamp technique.
To determine if compounds can enhance voltage-dependent K-current in Kv7.2/7.3 channel containing CHO-K1 cells. Planar patch-clamp is used on IonWorks to functionally determine percent enhancement of Kv7.2/7.3-current at 0 mV (compared to retigabine) and potency (EC50) of compounds. Intrinsic activity and/or potency may be important in determining in vivo pharmacological efficacy of the compounds.
Serial dilutions were made in DMSO on an Apricot Personal Pipettor. Compounds were then diluted in external buffer on a 384 well assay plate (final DMSO concentration=0.3%).
Cells used in this assay were CHO-K1 expressing Kv7.2/7.3 channels. Cells were maintained in growth media containing: F-12 (Gibco #11765-054), 10% FBS (Invitrogen 16140-071), 1:100 Glutamax (Gibco #35050-061), 1:100 Penicillin/streptomycin (Gibco #15140-122), 400 ug/ml Geneticin (Gibco #10131-027), 400 ug/ml Hygromycin-B (Invitrogen #10687-010). Cells were grown in T-150 flasks to a confluence of approx. 80%. External recording buffer contained (in mM): NaCl (137), KCl (4), MgCl2 (1), CaCl2 (1.8), HEPES (10), and glucose (10), pH was adjusted to 7.3 with NaOH and osmolarity was adjusted to 300-305 mOsM with sucrose, if necessary. Internal buffer contained (in mM): Kgluconate (120), KCl (20), NaCl (5), MgCl2 (1), CaCl2 (2), HEPES (10), KF (2), and Na2ATP (2). Na2ATP was added to internal buffer right before use and pH was adjusted to 7.2 with KOH. Osmolarity of internal buffer was adjusted to 290-295 mOsM.
Cells were washed 1× with Ca/Mg free PBS and then removed from the plates with a 50:50 mixture of versene (Gibco 15040): 0.25% trypsin-EDTA (Gibco 25200) (4 min), triturated, centrifuged at ˜1000 rpm for 5 min, and resuspended at ˜2.5 million cells/ml in external buffer for recording on IonWorks. Potassium current measurements were made using an IonWorks Quattro instrument (MDS Corp.) using PatchPlate PPC substrates with 64 apertures per well. IonWorks calculated leak current was digitally subtracted from the total current acquired. Potassium current was elicited by stepping from −80 mV to 0 mV (2 sec) was measured in the absence and presence of increasing concentrations (½ log) of unknown compound (7-point concentration curves). Retigabine was run as a positive control and comparator on each PatchPlate PPC. Maximum increase in K current was determined by subtracting the current elicited in external buffer alone wells from the current elicited in wells with compound treatment (both at 0 mV). […]
In general terms: In patch-clamp work, channel activity is measured electrically.
With `Cc1cccn2c(=O)c(NC(=O)CC(C)(C)C)c(NC(C)C3CC3)nc12` (single isomer, unassigned) [Example 2a, N-{2-[(1-Cyclopropylethyl)amino]-9-methyl-4-oxo-4H-pyrido[1,2-a]pyrimidin-3-yl}-3,3-dimethylbutanamide, (+)-enantiomer], the concentration for a half-maximal effect (EC50) was 227 nM.
For `Cc1cccn2c(=O)c(NC(=O)CC(C)(C)C)c(NC(C)C3CC3)nc12` (single isomer, unassigned) [Example 2b, N-{2-[(1-Cyclopropylethyl)amino]-9-methyl-4-oxo-4H-pyrido[1,2-a]pyrimidin-3-yl}-3,3-dimethylbutanamide, (−)-enantiomer], the EC50 worked out at 128 nM.
With `CC(C)(C)CC(=O)Nc1c(C2CC2)nc2n(c1=O)CCCC2C(F)(F)F` (single isomer, unassigned) [Example 5a, N-[2-Cyclopropyl-4-oxo-9-(trifluoromethyl)-6,7,8,9-tetrahydro-4H-pyrido[1,2-a]pyrimidin-3-yl]-3,3-dimethylbutanamide, (−)-enantiomer] the figure was 1240 nM.
Next, `CC(C)(C)CC(=O)Nc1c(C2CC2)nc2n(c1=O)CCCC2C(F)(F)F` (single isomer, unassigned) [Example 5b, N-[2-Cyclopropyl-4-oxo-9-(trifluoromethyl)-6,7,8,9-tetrahydro-4H-pyrido[1,2-a]pyrimidin-3-yl]-3,3-dimethylbutanamide, (+)-enantiomer]: 298 nM.
Regarding `CC(C)Nc1nc2n(c(=O)c1NC(=O)CC(C)(C)C)CCCC2C(F)(F)F` (single isomer, unassigned) [Example 8a, 3,3-Dimethyl-N-[4-oxo-2-(propan-2-ylamino)-9-(trifluoromethyl)-6,7,8,9-tetrahydro-4H-pyrido[1,2-a]pyrimidin-3-yl]butanamide, (−) enantiomer], the EC50 is 382 nM.
As for `CC(C)Nc1nc2n(c(=O)c1NC(=O)CC(C)(C)C)CCCC2C(F)(F)F` (single isomer, unassigned) [Example 8b, 3,3-Dimethyl-N-[4-oxo-2-(propan-2-ylamino)-9-(trifluoromethyl)-6,7,8,9-tetrahydro-4H-pyrido[1,2-a]pyrimidin-3-yl]butanamide, (+) enantiomer], the EC50 stood at 412 nM.
Next, `CC[C@@H](C)Nc1nc2n(c(=O)c1NC(=O)CC(C)(C)C)CCCC2C` (single isomer, unassigned; diastereomer 1) [Example 11a]: 307 nM.
With `CC[C@@H](C)Nc1nc2n(c(=O)c1NC(=O)CC(C)(C)C)CCCC2C` (single isomer, unassigned; diastereomer 2) [Example 11b] the figure was 942 nM; with `CC[C@@H](C)Nc1nc2c(C)cccn2c(=O)c1NC(=O)CC(C)(C)C` [Example 1, N-{2-[(2R)-Butan-2-ylamino]-9-methyl-4-oxo-4H-pyrido[1,2-a]pyrimidin-3-yl}-3,3-dimethylbutanamide], 168 nM.
On to `Cc1cccn2c(=O)c(NC(=O)CC(C)(C)C)c(NC(C)C)nc12` [Example 3, 3,3-Dimethyl-N-[9-methyl-4-oxo-2-(propan-2-ylamino)-4H-pyrido[1,2-a]pyrimidin-3-yl]butanamide], for which the EC50 worked out at 450 nM.
With `CC(C)(C)CC(=O)Nc1c(C2CC2)nc2c(C(F)(F)F)cccn2c1=O` [Example 4, N-[2-Cyclopropyl-4-oxo-9-(trifluoromethyl)-4H-pyrido[1,2-a]pyrimidin-3-yl]-3,3-dimethylbutanamide], the EC50 amounted to 137 nM.
Take `CC(C)(C)CC(=O)Nc1c(NC2CCC2)nc2c(C(F)(F)F)cccn2c1=O` [Example 6, N-[2-(Cyclobutylamino)-4-oxo-9-(trifluoromethyl)-4H-pyrido[1,2-a]pyrimidin-3-yl]-3,3-dimethylbutanamide]: the EC50 was found to be 91.5 nM.
With `CC(C)Nc1nc2c(C(F)(F)F)cccn2c(=O)c1NC(=O)CC(C)(C)C` [Example 7, 3,3-Dimethyl-N-[4-oxo-2-(propan-2-ylamino)-9-(trifluoromethyl)-4H-pyrido[1,2-a]pyrimidin-3-yl]butanamide] the figure was 119 nM; with `CC(C)Nc1nc2c(OC(C)(F)F)cccn2c(=O)c1NC(=O)CC(C)(C)C` [Example 9, N-[9-(1,1-Difluoroethoxy)-4-oxo-2-(propan-2-ylamino)-4H-pyrido[1,2-a]pyrimidin-3-yl]-3,3-dimethylbutanamide], 369 nM; with `CC(C)(C)CC(=O)Nc1c(C2CC2)nc2c(OC(C)(F)F)cccn2c1=O` [Example 10, N-[2-Cyclopropyl-9-(1,1-difluoroethoxy)-4-oxo-4H-pyrido[1,2-a]pyrimidin-3-yl]-3,3-dimethylbutanamide], 306 nM.
